# From patent US12558430B2, “Dual amylin and calcitonin receptor agonists and uses thereof” (Eli Lilly and Company, priority 2020, dated 2026)
# Read-outs that look alike come from different tables or passages of the source. Starred links: 1 amine or outer side, 2 acyl side, 3 side chain; linkers in the order of their positions; H or OH if unused. Non-standard residues stand in square brackets, D forms with d. Residues, ends and D or L forms follow the SMILES beside them. Groups on a side chain read outwards from the residue. *: point of attachment. C20 diacid = O=C(O)CCCCCCCCCCCCCCCCCCC(=O)*; γGlu = O=C(O)[C@H](CCC(=O)[*:2])N[*:1]; AEEA = NCCOCCOCC(=O)O; Aib = CC(C)(N)C(=O)O
# Assays:
# DIO male Long Evans rats = assay: DIO rats: Compound II in combination with other incretin compounds; assay type: in vivo, rat; details: mean ± SEM; for Cumulative Food Intake: 14-day treatment period; for Body Weight Change: Day −1 to Day 14
# Description: This study is conducted to investigate the effect of Compound II for diabetes and/or obesity conditions in DIO rats when administered in combination with other incretin compounds, including a GLP-1 agonist (Compound III), oxyntomodulin analog (Compound IV), and a triagonist of glucagon, GLP-1, and GIP (Compound V). Diet-induced obese (DIO) male Long Evans (Envigo) rats, maintained on a calorie rich diet since arrival at Lilly (TD95217; Teklad, Madison, Wis.), are used in the following studies. Animals are individually housed in a temperature-controlled (24° C.) facility with 12-hour light/dark cycle (lights on 2200) and free access to food (TD95217) and water.
# The rats are randomized according to their body weight, so that each experimental group of animals would have similar body weight. The body weights range from 529 to 823 grams.
# Each group contains five rats. Vehicle and Compound II (1 nmol/kg) are dissolved in vehicle (40 mM Tris-HCl pH8+0.02% PS80) and are administered by subcutaneous (SC) injection (1 mL/kg) to ad libitum fed DIO rats 30 to 90 minutes prior to the onset of the dark cycle every 3 days for 14 days. SC injections are made on Days 1, 4, 7, 10 and 13. Body weight and food intake are measured daily throughout the study. Absolute changes in body weight are calculated by subtracting the body weight of the same animal prior to the first injection of molecule.
# At the end of the study, blood is collected to measure blood glucose and plasma insulin. Blood glucose is measured by AccuChek glucometers (Roche, Indianapolis, Ind.). Insulin is measured by ELISA (MSD, Rockville, Md.).
# All data are presented as mean±SEM of 5 animals per group. Statistical analysis is performed using one-way ANOVA, followed by Tukey's multiple comparison test to compare treatment groups to vehicle group or each other. Significant differences are identified at p<0.05.
# human AMY1 receptor = human AMY1 receptor (Homo sapiens, UniProt O60894+P30988); assay: hAMY1 cAMP functional assay (HTRF); assay type: cell-based
# Description: The AMY1 and CT receptors are GPCRs that are functionally coupled to Gαs proteins. Stimulation of these receptors results in an increased production of intracellular cAMP, which can be detected using standard in vitro technologies. Human AMY1 or CT receptors are stably expressed in human urinary bladder cells (UM-UC-3) cells under control of a pcDNA (CALCR) or pCMV piggybac (RAMP1) expression vector. AMY1 cells are cultured in MEM 1X (Corning) supplemented with 10% FBS, 1% antibiotic/antimycotic solution, 1 mM sodium pyruvate, 1X MEM NEAA, 1X GlutaMAX-I, 200 μg/mL hygromycin B, and 0.4 μg/mL puromycin. CT cells are cultured in the same medium except that it lacks the puromycin. Cultured cells are grown to 70% confluency, and then incubated overnight with fresh medium.
# On the assay day, 10 μL of assay buffer (phenol red free MEM (Corning, cat #17-305-CV), 0.1% casein, 0.5 mM IBMX, 5 mM HEPES, pH 7.4) is dispensed into each well of white poly-D-lysine coated 384-well plates (Corning cat #354661). […]
# The amount of intracellular cAMP is quantitated using HTRF technology (Homogeneous Time Resolved Fluorescence; Cisbio) as per vendor instructions. […] The HTRF signal is immediately detected using an Envision plate reader (Perkin-Elmer) to calculate the ratio of fluorescence at 665 to 620 nm. […]
# human CT receptor = molecular target: T1, human CT receptor (Homo sapiens, UniProt P30988); assay: hCT cAMP functional assay (HTRF); assay type: cell-based
# T1 sequence (P30988 25-474): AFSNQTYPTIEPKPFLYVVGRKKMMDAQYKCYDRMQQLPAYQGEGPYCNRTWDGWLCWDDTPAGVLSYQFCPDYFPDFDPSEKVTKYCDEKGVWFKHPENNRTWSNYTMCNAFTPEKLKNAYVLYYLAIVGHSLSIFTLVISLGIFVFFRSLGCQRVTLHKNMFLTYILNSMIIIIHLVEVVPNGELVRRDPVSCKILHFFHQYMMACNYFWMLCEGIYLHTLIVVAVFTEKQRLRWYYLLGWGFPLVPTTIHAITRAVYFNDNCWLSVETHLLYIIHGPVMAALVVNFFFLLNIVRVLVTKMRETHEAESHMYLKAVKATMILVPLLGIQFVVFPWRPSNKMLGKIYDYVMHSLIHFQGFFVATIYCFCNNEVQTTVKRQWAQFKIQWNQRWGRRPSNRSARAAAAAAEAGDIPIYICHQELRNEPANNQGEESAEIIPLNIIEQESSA
# Description: The AMY1 and CT receptors are GPCRs that are functionally coupled to Gαs proteins. […] Human AMY1 or CT receptors are stably expressed in human urinary bladder cells (UM-UC-3) cells under control of a pcDNA (CALCR) or pCMV piggybac (RAMP1) expression vector. AMY1 cells are cultured in MEM 1X (Corning) supplemented with 10% FBS, 1% antibiotic/antimycotic solution, 1 mM sodium pyruvate, 1X MEM NEAA, 1X GlutaMAX-I, 200 μg/mL hygromycin B, and 0.4 μg/mL puromycin. CT cells are cultured in the same medium except that it lacks the puromycin. Cultured cells are grown to 70% confluency, and then incubated overnight with fresh medium.
# Peptides diluted in DMSO are added (200 nL/well) in a 1:3 dilution series using ECHO acoustic liquid handler (Beckman). Cultured cells are detached with TrypLE Express (Gibco), resuspended in assay buffer, and 10 μL containing 1200 cells/well (hCT) or 1500 cells/well (hAMY1) are dispensed into each well. The plates are incubated at room temperature for 1 hour.
# The amount of intracellular cAMP is quantitated using HTRF technology (Homogeneous Time Resolved Fluorescence; Cisbio) as per vendor instructions. Briefly, 10 μL cAMP-d2 conjugate and 10 μL anti-cAMP-cryptate conjugate in lysis buffer are incubated with the treated cells at room temperature for 60 min. […]
# [1] = Monkey pharmacokinetics, single subcutaneous dose; assay type: in vivo; details: cynomolgus monkey, plasma, sc, 20 nmol/kg, single 20 nmol/kg SC
# Description: (§1) Plasma concentration of Compound II is determined by a qualified Liquid Chromatography Mass Spectrometry (LC/MS) method at Q Squared Solutions BioSciences LLC, Ithaca, N.Y. Compound II and an analog as an internal standard are extracted from 100% species-specific plasma using protein precipitation followed by solid phase extraction. The intact mass of Compound II which includes peptide plus acyl chain is detected by a Q-Exactive Orbitrap™ mass spectrometer.
# In a monkey pharmacokinetics study, male and female Cynomolgus monkeys are administered a single subcutaneous dose of 20 nmol/kg (0.084 mg/kg) of Compound II in Tris-mannitol buffer (pH 8.0) at a volume of 0.2 mL/kg. Blood is collected predose and at 1, 3, 6, 12, 24, 48, 72, 96, 120, 144, 168, 240, 336, 408, 504 hours postdose for pharmacokinetic characterization.
# [2] = Rat pharmacokinetics, single subcutaneous dose; assay type: in vivo; details: male, Sprague Dawley, plasma, sc, 20 nmol/kg, single 20 nmol/kg SC
# Description: as §1
# In a rat pharmacokinetic study, male Sprague Dawley rats are administered a single subcutaneous dose of 20 nmol/kg (0.084 mg/kg) of Compound II in Tris-mannitol buffer (pH 8.0) at a volume of 0.2 mL/kg. Blood is collected at 1-, 3-, 6-, 12-, 24-, 48-, 72-, 96-, 120-, and 144-hours post-dose for pharmacokinetic characterization.
# [3] = test system: Primary human dendritic cells
# [4] = background statement; cited from earlier work
# Description for CD4+ T cells: Cryopreserved PBMCs were used from ten healthy donors and the CD8+ T cells were depleted from the PBMCs and labeled with 1 μM Carboxyfluorescein Diacetate Succinimidyl Ester (CFSE). […] Cells were cultured and incubated for 7 days at 37° C. with 5% CO2. On day 7, samples were stained with the following cell surface markers: anti-CD3, anti-CD4, anti-CD14, anti-CD19, and DAPI for viability detection by flow cytometry using a BD LSRFortessa™, equipped with a High Throughput Sampler (HTS). Data was analyzed using FlowJo® Software (FlowJo, LLC, TreeStar) and a Cellular Division Index (CDI) was calculated. Briefly, the CDI for each test candidate's MAPPs-derived peptide cluster was calculated by dividing the percent of proliferating CFSE^dimCD4+ T cells from peptide-stimulated wells by the percent of proliferating CFSE^dimCD4+ T cells in the unstimulated wells. A CDI of ≥2.5 was considered to represent a positive response. A percent donor frequency across all donors was evaluated.
# human AMY1 receptor, sequence (O60894 27-148, one chain of several): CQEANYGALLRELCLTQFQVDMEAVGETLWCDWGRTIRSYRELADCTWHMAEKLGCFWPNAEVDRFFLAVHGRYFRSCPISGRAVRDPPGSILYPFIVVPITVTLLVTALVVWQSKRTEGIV
compound,measurement,setting,value
"Y-Aib-QGTFTSDYSI-αMeL-LDKK((2-[2-(2-Amino-ethoxy)-ethoxy]-acetyl)-(γGlu)-CO-(CH2)18-CO2H)AQ-Aib-AFIEYLLEGGPSSGAPPPS-NH2 (YXQGTFTSDYSIXLDKKAQXAFIEYLLEGGPSSGAPPPS; Aib, αMeL; lipidated Lys; C-terminal amide; SITE 2 X at position 2 is Aib; SITE 13 X at position 13 is alpha-methyl-Leu; MOD_RES 17 The Lys at position 17 is chemically modified by conjugation of the epsilon amino group of the Lys sidechain with 2-[2-(2-Amino-ethoxy)-ethoxy]-acetyl)-(gamma-Glu)-CO-(CH2)18-CO2H; SITE 20 X at position 20 is Aib; MOD_RES 39 C-terminus is amidated) [Compound V, triagonist of glucagon, GLP-1, and GIP]",Cumulative Food Intake,DIO male Long Evans rats; 3 nmol/kg SC every three days,157.50 ± 10.63 g
same,Body Weight Change,DIO male Long Evans rats; 3 nmol/kg SC every three days,-43.28 ± 2.54 g
"H-Aib-QGTFTSDYSKYLDEKKAK((2-[2-(2-Amino-ethoxy)-ethoxy]-acetyl)2-(γGlu)-CO-(CH2)18-CO2H)EFVEWLLEGGPSSG-NH2 (H-H[Aib]QGTFTSDYSKYLDEKKAK([AEEA-AEEA-γGlu-C20 diacid])EFVEWLLEGGPSSG-NH2) [Compound IV, oxyntomodulin analog]",Cumulative Food Intake,DIO male Long Evans rats; 10 nmol/kg SC every three days,165.86 ± 7.45 g
same,Body Weight Change,DIO male Long Evans rats; 10 nmol/kg SC every three days,-50.24 ± 6.36 g
CC(=O)N[C@@H](C)C(=O)N[C@@H](CO)C(=O)N[C@@H](Cc1c[nH]cn1)C(=O)N[C@@H](CC(C)C)C(=O)N[C@@H](CO)C(=O)N[C@H](C(=O)N[C@@H](C)C(=O)N[C@H](C(=O)N[C@@H](CC(C)C)C(=O)NCC(=O)N[C@@H](CCCCNC(=O)COCCOCCNC(=O)COCCOCCNC(=O)CC[C@H](NC(=O)CCCCCCCCCCCCCCCCCCC(=O)O)C(=O)O)C(=O)N[C@@H](CC(C)C)C(=O)N[C@@H](CO)C(=O)NC(C)(C)C(=O)N[C@@H](CCC(=O)O)C(=O)N[C@@H](CC(C)C)C(=O)N[C@@H](Cc1c[nH]cn1)C(=O)N[C@@H](CCCCN)C(=O)N[C@@H](CC(C)C)C(=O)N[C@@H](CCC(=O)O)C(=O)N[C@@H](CC(=O)O)C(=O)N[C@@H](Cc1ccc(O)cc1)C(=O)N1CCC[C@H]1C(=O)N[C@@H](CCCNC(=N)N)C(=O)N[C@H](C(=O)N[C@@H](CC(=O)O)C(=O)N[C@H](C(=O)NCC(=O)N[C@@H](C)C(=O)N[C@@H](CCC(=O)O)C(=O)N[C@@H](CO)C(=O)N1CCC[C@H]1C(N)=O)C(C)C)[C@@H](C)O)C(C)C)[C@@H](C)O [Compound II] (Ac-ASHLSTAVLGK([AEEA-AEEA-γGlu-C20 diacid])LS[Aib]ELHKLEDYPRTDVGAESP-NH2),EC50,human AMY1 receptor,0.0494 ± 0.00514 nM
same,EC50,human CT receptor,0.0409 ± 0.0147 nM
same,AUC(0-inf),"[1]; both sexes, Mean",47.5 µM·h
same,CL/F,"[1]; both sexes, Mean",0.42 mL/h/kg
same,Cmax,"[1]; both sexes, Mean",168 nM
same,Tmax,"[1]; both sexes, Mean",42 h
same,half-life,"[1]; both sexes, Mean",178 h
same,AUC(0-inf),[1]; animal P0001,50.4 µM·h
same,CL/F,[1]; animal P0001,0.4 mL/h/kg
same,Cmax,[1]; animal P0001,198 nM
same,Tmax,[1]; animal P0001,12 h
same,half-life,[1]; animal P0001,185 h
same,AUC(0-inf),[1]; animal P0101,44.7 µM·h
same,CL/F,[1]; animal P0101,0.45 mL/h/kg
same,Cmax,[1]; animal P0101,138 nM
same,Tmax,[1]; animal P0101,72 h
same,half-life,[1]; animal P0101,170 h
same,AUC(0-inf),[2]; Mean,8.59 µM·h
same,CL/F,[2]; Mean,2.33 mL/h/kg
same,Cmax,[2]; Mean,90 nM
same,Tmax,[2]; Mean,24 h
same,half-life,[2]; Mean,58 h
same,AUC(0-inf),[2]; animal R0001,8.41 µM·h
same,CL/F,[2]; animal R0001,2.38 mL/h/kg
same,Cmax,[2]; animal R0001,88 nM
same,Tmax,[2]; animal R0001,48 h
same,half-life,[2]; animal R0001,47 h
same,AUC(0-inf),[2]; animal R0002,8.7 µM·h
same,CL/F,[2]; animal R0002,2.3 mL/h/kg
same,Cmax,[2]; animal R0002,81 nM
same,Tmax,[2]; animal R0002,12 h
same,half-life,[2]; animal R0002,60 h
same,AUC(0-inf),[2]; animal R0003,8.65 µM·h
same,CL/F,[2]; animal R0003,2.31 mL/h/kg
same,Cmax,[2]; animal R0003,99 nM
same,Tmax,[2]; animal R0003,12 h
same,half-life,[2]; animal R0003,67 h
same,# of clusters,[3],0
same,% Donors (displaying non-germline residues),[3],0%
same,immunogenicity risk (MAPPs),[3],low level of immunogenicity risk
same,% Positive Donors,CD4+ T cells,12.5%
same,CDI Range High,CD4+ T cells,19.7
same,CDI Range Low,CD4+ T cells,0.7
same,Median CDI (All donors),CD4+ T cells,1.0
same,Median CDI (Positive Donors),CD4+ T cells,19.7
same,Number of donors (positive/tested),CD4+ T cells,1/8
same,immunogenicity risk (T cell proliferation),CD4+ T cells,low level of immunogenicity risk
Salmon calcitonin,half-life,[4],less than two hours
CC(=O)N[C@@H](C)C(=O)N[C@@H](CO)C(=O)N[C@@H](Cc1c[nH]cn1)C(=O)N[C@@H](CC(C)C)C(=O)N[C@@H](CO)C(=O)N[C@H](C(=O)N[C@@H](C)C(=O)N[C@H](C(=O)N[C@@H](CC(C)C)C(=O)NCC(=O)N[C@@H](CCCCN)C(=O)N[C@@H](CC(C)C)C(=O)N[C@@H](CO)C(=O)NC(C)(C)C(=O)N[C@@H](CCC(=O)O)C(=O)N[C@@H](CC(C)C)C(=O)N[C@@H](Cc1c[nH]cn1)C(=O)N[C@@H](CCCCN)C(=O)N[C@@H](CC(C)C)C(=O)N[C@@H](CCC(=O)O)C(=O)N[C@@H](CC(=O)O)C(=O)N[C@@H](Cc1ccc(O)cc1)C(=O)N1CCC[C@H]1C(=O)N[C@@H](CCCNC(=N)N)C(=O)N[C@H](C(=O)N[C@@H](CC(=O)O)C(=O)N[C@H](C(=O)NCC(=O)N[C@@H](C)C(=O)N[C@@H](CCC(=O)O)C(=O)N[C@@H](CO)C(=O)N1CCC[C@H]1C(N)=O)C(C)C)[C@@H](C)O)C(C)C)[C@@H](C)O [Compound I] (Ac-ASHLSTAVLGKLS[Aib]ELHKLEDYPRTDVGAESP-NH2),EC50,human AMY1 receptor,0.0493 ± 0.00804 nM
same,EC50,human CT receptor,0.0317 ± 0.0058 nM
